Assay results as given in patent US8865714B2, “Piperazine compound capable of inhibiting prostaglandin D synthase” (Taiho Pharmaceutical Co., Ltd., priority 2009, dated 2014).

Columns and labels:
C57BL/10-mdx (mdx) mice = test: Forelimb grip strength test in mice; format: in vivo; settings: 30 mg/kg orally once a day for 4 weeks, * = significance level below 0.05 vs control group
Description: 4-week-old male C57BL/10-mdx (mdx) mice were used as a disease group, and 4-week-old male C57BL/10Sn (wild) mice were used as a normal group in the test. A acclimation period was provided after the arrival of the mice. An initial value of each individual was measured at 5 weeks of age, and 10 mice were assigned to each group. From the following day, the test compound (30 mg/kg) was orally administered to the mice once a day consecutively for 4 weeks. The animals in the control group only received the vehicle orally. The forelimb grip strength was measured at 4 weeks after the start of the administration. A value obtained by dividing the average of 5 forelimb grip strength measurement values (kg) determined using a small animal grip strength measurement device (GPM-100M, Melquest) by the body weight (kg) was used as the evaluation index (reference literature: Muscle Nerve., 35, 43-48 (2007)).
9 or more cases were obtained from each group to determine whether expression of forelimb grip strength enhancing action occurred. First, a significant decrease in the value of the control group compared to that of the normal group was confirmed, and then the value of the control group was compared with the value of the compound-administered group. When the significance level was below 0.05, the action was considered to be present and indicated by symbols (#) and (*) in the table.

[1] = tested on: eosinophil infiltration in guinea pigs with antigen-induced rhinitis; test: Eosinophil infiltration inhibiting action in guinea pigs with antigen-induced rhinitis; format: in vivo; settings: 30 mg/kg orally 3 times; washing 6 hours after induction; * = significance level below 0.05 vs control group
Description: (§1) A physiological saline solution containing 1 mg/mL of ovalbumin was subcutaneously injected into the back of 5-week-old male Std:Hartley guinea pigs in an amount of 1 mL/body for active sensitization (initial sensitization). One week and two weeks after initial sensitization, 20 μL of a physiological saline solution containing 10 mg/mL of ovalbumin was instilled into each nasal cavity using a micropipette (sensitization by nasal administration). Three weeks after initial sensitization, 20 μL of a physiological saline solution containing 10 mg/mL of ovalbumin was instilled into each nasal cavity using a micropipette to induce a rhinitis reaction.
The test compound (30 mg/kg) was orally administered 3 times in total (2 times at sensitization by nasal administrations and 1 time at the induction of a rhinitis reaction), 1 hour before sensitization or induction. The animals in the control group only received the medium orally.
6 hours after the induction of a rhinitis reaction, the nasal cavities were washed under pentobarbital sodium anesthesia. A nasal cavity washing liquid (phosphate buffered saline containing 3 mM of EDTA and 10 μM of indomethacin) was flushed using a Peristaltic Pump (Gilson, Inc.) in the direction from the trachea to the upper respiratory tract at the flow rate of 1 mL/min, and the liquid flowing out from the nasal cavities was collected for 3 minutes. The collected liquid was filtered through a cell strainer (40 μm), and centrifuged at 4° C., 300×g, for 10 minutes. Subsequently, the supernatant was removed by suction. 250 μL of nasal cavity washing liquid was added to the cell pellet to form a suspension. The total number of cells (×10^5 cells) in the cell suspension was determined using an automated blood cell counter (F-820, Sysmex Corporation).
A cell smear was prepared using a centrifugal device to collect cells (Cytospin-3, Shandon). After the cells were stained using a cell stain solution, the number of monocytes, the number of eosinophils, and the number of neutrophils were counted to obtain 300 cells in total by observation under a microscope (200-times magnification). The component ratio of each cell was calculated, and the number of eosinophils in the nasal cavity washing liquid was determined by the following formula. Number of eosinophils([…])=(Eosinophil count÷total count(300))×total number of cells
The rate of decrease in the number of eosinophils in the nasal cavity washing liquid was regarded as the eosinophil infiltration inhibition rate, and determined by the following formula. […] Inhibition rate(%)={(Number of eosinophils in the control group−number of eosinophils in the compound-administered group)÷(number of eosinophils in the control group−number of eosinophils in the normal group)}×100
16 cases were obtained from each group, and the number of eosinophils in the nasal cavity washing fluid was compared between the control group and each compound-administered group. Note that when the significance level was below 0.05, the eosinophil infiltration inhibiting action was considered to be present and indicated by a symbol (*) in the table.

[2] = tested on: PGD2 production in the nasal cavities of guinea pigs with antigen-induced rhinitis; test: PGD2 production inhibiting action in the nasal cavities of guinea pigs with antigen-induced rhinitis; format: in vivo; settings: for Rate of decrease in PGD2 concentration in the nasal cavity washing fluid (%): 30 mg/kg orally 1 hour before induction, washing 30 minutes after induction, * = significance level below 0.05 vs control group
Description: as §1
The test compound (30 mg/kg) was orally administered 1 hour before induction of a rhinitis reaction. The animals in the control group only received the medium orally.
30 minutes after the induction of a rhinitis reaction, the nasal cavities were washed under pentobarbital sodium anesthesia. A nasal cavity washing liquid (phosphate buffered saline containing 3 mM of EDTA and 10 μM of indomethacin) was flushed using a Peristaltic Pump (Gilson, Inc.) in the direction from the trachea to the upper respiratory tract at the flow rate of 1 mL/min, and the liquid flowing out from the nasal cavities was collected for 1 minute. The collected liquid was centrifuged to separate the supernatant as the nasal cavity washing fluid. The concentration of PGD2 in the nasal cavity washing fluid was determined using an EIA kit (Prostaglandin D2-MOX EIA kit, Cayman Chemical).
The rate of decrease in PGD2 in the nasal cavity washing fluid was calculated by the following formula. […] Rate of decrease in PGD2 in the nasal cavity washing fluid(%)={(PGD2 concentration in the control group−PGD2 concentration in the compound-administered group)÷(PGD2 concentration in the control group−PGD2 concentration in the normal group)}×100 […]

human H-PGDS = human H-PGDS (Homo sapiens (Human), UniProt O60760); test: Hematopoietic prostaglandin D synthase (H-PGDS) inhibiting action; format: biochemical; settings: human H-PGDS, [14C] prostaglandin H2 10 μM
human H-PGDS, sequence (O60760 whole entry): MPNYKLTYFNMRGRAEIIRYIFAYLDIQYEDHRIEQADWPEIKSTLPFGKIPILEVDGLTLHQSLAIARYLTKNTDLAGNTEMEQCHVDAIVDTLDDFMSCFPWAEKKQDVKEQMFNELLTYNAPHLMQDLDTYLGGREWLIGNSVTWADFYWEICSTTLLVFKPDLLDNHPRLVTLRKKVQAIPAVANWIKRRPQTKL
Description: More specifically, the reaction mixture (49 μL) containing 100 mM Tris-HCl (pH 8.0), 1 mM reduced glutathione, 0.1 mg/mL γ-globulin, and human H-PGDS (q.s.), and a compound (final concentration: 0.01-100 μM) was preincubated at 25° C. for 5 minutes. Note that a DMSO solution (final concentration: 1%) was added to the solvent control group. Subsequently, 1 μL of [14C] prostaglandin H2 (final concentration: 10 μM) was added to start the reaction. One minute after the start of the reaction, 250 μL of a reaction stopper solution (diethylether/methanol/1 M citric acid (30/4/1) at a temperature of −20° C. was added to stop the reaction. After the reaction was stopped, 50 μL of the upper layer portion (organic solvent phase) was applied to a TLC plate and developed at −20° C. for 45 minutes (developing solvent: diethylether/methanol/acetic acid (90/2/1)). After drying the TLC plate, the TLC plate was exposed to an imaging plate for 1 to 24 hours, and the radioactivity corresponding to prostaglandin D2 (PGD2) was analyzed using an image analyzer (produced by Fujifilm Corporation).

## O=C(Nc1nc2ccc(Cl)cc2s1)N1CCN(C(=O)c2cccc(F)c2)CC1 [Reference Example 17, 4-(3-fluorobenzoyl)piperazine-1-carboxylic acid-(6-chlorobenzothiazol-2-yl)amide]
C57BL/10-mdx (mdx) mice
  Forelimb grip strength measurement value/body weight (kg/kg): 4.48 ± 0.15 kg/kg
[1]
  Eosinophil infiltration inhibition rate (%): 16.6%

## Cc1cc2nc(NC(=O)N3CCN(C(=O)c4cccc(F)c4)CC3)sc2cc1C [Reference Example 14, 4-(3-fluorobenzoyl)-piperazine-1-carboxylic acid-(5,6-dimethylbenzothiazol-2-yl)amide]
C57BL/10-mdx (mdx) mice
  Forelimb grip strength measurement value/body weight (kg/kg): 4.26 ± 0.22 kg/kg
[1]
  Eosinophil infiltration inhibition rate (%): −25.1%

## O=C(Nc1nc2ccc(Br)cc2s1)N1CCN(C(=O)c2cccc(F)c2)CC1 [Reference Example 13, 4-(3-fluorobenzoyl)-piperazine-1-carboxylic acid-(6-bromobenzothiazol-2-yl)amide]
C57BL/10-mdx (mdx) mice
  Forelimb grip strength measurement value/body weight (kg/kg): 4.37 ± 0.15 kg/kg
[1]
  Eosinophil infiltration inhibition rate (%): 34.2%

## CON(C)C(=O)c1[nH]c(C)c(-c2nc3ccc(C(=O)c4ccccc4)cc3[nH]2)c1C [Reference Example 19, N-methoxy-N-methyl-4-(5-benzoylbenzimidazol-2-yl)-3,5-dimethylpyrrol-2-carboxamide]
[2]
  Rate of decrease in PGD2 concentration in the nasal cavity washing fluid (%): 77.0* %
[2]; 30 mg/kg orally, summary of Table 2
  PGD2 production inhibiting action (in words): have the action

## Cc1ccc2nc(NC(=O)N3CCN(C(=O)c4cccc(F)c4)CC3)sc2c1 [Reference Example 15, 4-(3-fluorobenzoyl)piperazine-1-carboxylic acid-(6-methylbenzothiazol-2-yl)amide]
C57BL/10-mdx (mdx) mice
  Forelimb grip strength measurement value/body weight (kg/kg): 4.20 ± 0.20 kg/kg
[1]
  Eosinophil infiltration inhibition rate (%): −133.3* %

## 4-((1-methylpyrrol-2-yl)-carbonyl)-N-(4-(4-morpholin-1-yl-carbonylpiperidin-1-yl)-phenyl)-1-piperazinecarboxamide [Example 3]
C57BL/10-mdx (mdx) mice
  Forelimb grip strength measurement value/body weight (kg/kg): 4.80 ± 0.09* kg/kg
[2]
  Rate of decrease in PGD2 concentration in the nasal cavity washing fluid (%): 77.5* %
Human H-PGDS; compound at 0.1 μM, relative to the control group
  H-PGDS inhibition rate (%): 54.2%
Human H-PGDS; read-out: IC50
  IC50: 76 nM
[1]
  Eosinophil infiltration inhibition rate (%): 49.9* %

## COc1ccc2nc(NC(=O)N3CCN(C(=O)c4cccc(F)c4)CC3)sc2c1 [Reference Example 16, 4-(3-fluorobenzoyl)piperazine-1-carboxylic acid-(6-methoxybenzothiazol-2-yl)amide]
C57BL/10-mdx (mdx) mice
  Forelimb grip strength measurement value/body weight (kg/kg): 4.29 ± 0.24 kg/kg
[1]
  Eosinophil infiltration inhibition rate (%): −108.0* %
